The structures appear in SMILES notation. Converted amounts (≈) assume the structure as drawn.

The subject of experiment [1] is Mycobacterium tuberculosis. The experiment can be described thus: Antituberculosis activity against Mycobacterium tuberculosis H37Rv under anaerobic conditions by fluorescence based low-oxygen-recovery assay. In kind it is functional.
The test system of experiment [2] is Mycobacterium tuberculosis. Put plainly: Antituberculosis activity against Mycobacterium tuberculosis H37Rv under aerobic conditions by microplate alamar blue assay. In kind it is functional. Background: The colour change of resazurin is a common sign of viable cells or microbes.

A word on the MIC: it is the least concentration at which growth counts as inhibited. Low values mean inhibition by little substance, high ones a need for much substance. Turning to `O=[N+]([O-])c1cn2c(n1)OC[C@@H](OCC#Cc1ccc(-c3ccc(C(F)(F)F)cc3)cc1)C2`, the MIC is 0.86 µM (≈ 0.381 µg/mL) in experiment [1] and 0.22 µM (≈ 0.0975 µg/mL) in experiment [2].
In the case of `O=[N+]([O-])c1cn2c(n1)OC[C@@H](OCCCc1ccc(-c3ccc(F)cc3)cc1)C2`, the minimal inhibitory concentration (MIC) in experiment [1] is 0.92 µM (≈ 0.366 µg/mL); in experiment [2], 0.045 µM (≈ 0.0179 µg/mL).
The like results for `O=[N+]([O-])c1cn2c(n1)OC[C@@H](OCCCc1ccc(-c3ccc(C(F)(F)F)nc3)cc1)C2` were, in that order, 1.9 µM (≈ 0.852 µg/mL) and 0.07 µM (≈ 0.0314 µg/mL).
The like results for `O=[N+]([O-])c1cn2c(n1)OC[C@@H](OCCCc1ccc(-c3ccc(C(F)(F)F)cn3)cc1)C2` were, in that order, 3 µM (≈ 1.35 µg/mL) and 0.055 µM (≈ 0.0247 µg/mL).
For `O=[N+]([O-])c1cn2c(n1)OC[C@@H](OCCOc1ccc(-c3ccc(F)cc3)cc1)C2`, the MIC was 3.4 µM (≈ 1.36 µg/mL) in experiment [1] and 0.04 µM (≈ 0.016 µg/mL) in experiment [2].
For `O=[N+]([O-])c1cn2c(n1)OC[C@@H](OCCOc1ccc(-c3ccc(C(F)(F)F)cc3)cc1)C2`, in that order: 104 µM (≈ 46.7 µg/mL) and 0.04 µM (≈ 0.018 µg/mL).
The like results for `O=[N+]([O-])c1cn2c(n1)OC[C@@H](OCCOc1ccc(-c3ccc(C(F)(F)F)nc3)cc1)C2` were, in that order, 4.1 µM (≈ 1.85 µg/mL) and 0.025 µM (≈ 0.0113 µg/mL).
As to `O=[N+]([O-])c1cn2c(n1)OC[C@@H](OCCOc1ccc(-c3ccc(F)cc3)cn1)C2`, the values for the MIC in experiment [1] and in experiment [2] were 2.4 µM (≈ 0.961 µg/mL) and 0.02 µM (≈ 0.00801 µg/mL), respectively.
With `O=[N+]([O-])c1cn2c(n1)OC[C@@H](OCCOc1ccc(-c3ccc(C(F)(F)F)cc3)cn1)C2`, the minimal inhibitory concentration (MIC) in experiment [1] came to 3 µM (≈ 1.35 µg/mL); in experiment [2], 0.02 µM (≈ 0.00901 µg/mL).
In the case of `O=[N+]([O-])c1cn2c(n1)OC[C@@H](OCCOc1ccc(-c3ccc(C(F)(F)F)nc3)cn1)C2`, the minimal inhibitory concentration (MIC) in experiment [1] is 10 µM (≈ 4.51 µg/mL); in experiment [2], 0.22 µM (≈ 0.0993 µg/mL).
For `O=[N+]([O-])c1cn2c(n1)OC[C@@H](OCCOc1ncc(-c3ccc(F)cc3)cn1)C2`, the minimal inhibitory concentration (MIC) in experiment [1] worked out at 13 µM (≈ 5.22 µg/mL); in experiment [2] it was 0.13 µM (≈ 0.0522 µg/mL).
Consider `O=[N+]([O-])c1cn2c(n1)OC[C@@H](OCCOc1ncc(-c3ccc(C(F)(F)F)cc3)cn1)C2`, for which the MIC amounted to 5.4 µM (≈ 2.44 µg/mL) in experiment [1] and 0.12 µM (≈ 0.0542 µg/mL) in experiment [2].
Regarding `O=[N+]([O-])c1cn2c(n1)OC[C@@H](OC/C=C/c1ccc(-c3ccc(F)cc3)cc1)C2`, the minimal inhibitory concentration (MIC) in experiment [1] worked out at 3.1 µM (≈ 1.23 µg/mL); in experiment [2] it was 0.09 µM (≈ 0.0356 µg/mL).
For `O=[N+]([O-])c1cn2c(n1)OC[C@@H](OC/C=C/c1ccc(-c3ccc(C(F)(F)F)cc3)cc1)C2`, in that order: 43 µM (≈ 19.2 µg/mL) and 0.045 µM (≈ 0.02 µg/mL).
With `O=[N+]([O-])c1cn2c(n1)OC[C@@H](OC/C=C/c1ccc(-c3ccc(C(F)(F)F)nc3)cc1)C2`, the MIC in experiment [1] was 15 µM (≈ 6.7 µg/mL); in experiment [2], 0.02 µM (≈ 0.00893 µg/mL).
As for `O=[N+]([O-])c1cn2c(n1)OC[C@@H](OC/C=C/c1ccc(-c3ccc(OC(F)F)cc3)cc1)C2`, the MIC in experiment [1] came out at 4.3 µM (≈ 1.91 µg/mL); in experiment [2], 0.08 µM (≈ 0.0355 µg/mL).
Turning to `O=[N+]([O-])c1cn2c(n1)OC[C@@H](OCC#Cc1ccc(-c3ccc(F)cc3)cc1)C2`, the values for the MIC in experiment [1] and in experiment [2] were 2.7 µM (≈ 1.06 µg/mL) and 0.035 µM (≈ 0.0138 µg/mL), respectively.
For the molecule `O=[N+]([O-])c1cn2c(n1)OC[C@@H](OCC#Cc1ccc(-c3ccc(OC(F)F)cc3)cc1)C2`, the MIC in experiment [1] was found to be 1.8 µM (≈ 0.795 µg/mL); in experiment [2], 0.14 µM (≈ 0.0618 µg/mL).
For `O=[N+]([O-])c1cn2c(n1)OC[C@@H](OCC#Cc1cccc(-c3ccc(F)cc3)c1)C2`, the results for the minimal inhibitory concentration (MIC) in experiment [1] and in experiment [2] were 0.88 µM (≈ 0.346 µg/mL) and 0.04 µM (≈ 0.0157 µg/mL), respectively.
The like results for `O=[N+]([O-])c1cn2c(n1)OC[C@@H](OCC#Cc1cccc(-c3ccc(C(F)(F)F)nc3)c1)C2` were, in that order, 0.96 µM (≈ 0.427 µg/mL) and 0.12 µM (≈ 0.0533 µg/mL).
Turning to `O=[N+]([O-])c1cn2c(n1)OC[C@@H](OCC#Cc1cccc(-c3ccc(OC(F)F)cc3)c1)C2`, the figures for the minimal inhibitory concentration (MIC) in experiment [1] and in experiment [2] were 1.4 µM (≈ 0.618 µg/mL) and 0.09 µM (≈ 0.0397 µg/mL), respectively.
In the case of `O=[N+]([O-])c1cn2c(n1)OC[C@@H](OCC#Cc1ccc(-c3ccc(F)cc3)cn1)C2`, the MIC in experiment [1] worked out at 0.85 µM (≈ 0.335 µg/mL); in experiment [2], 0.05 µM (≈ 0.0197 µg/mL).
On to `O=[N+]([O-])c1cn2c(n1)OC[C@@H](OCC#Cc1ccc(-c3ccc(C(F)(F)F)cc3)cn1)C2`, for which the minimum inhibitory concentration (MIC) was found to be 0.75 µM (≈ 0.333 µg/mL) in experiment [1] and 0.02 µM (≈ 0.00889 µg/mL) in experiment [2].
As to `O=[N+]([O-])c1cn2c(n1)OC[C@@H](OCC#Cc1ccc(-c3ccc(C(F)(F)F)nc3)cn1)C2`, the results for the MIC in experiment [1] and in experiment [2] were 6.6 µM (≈ 2.94 µg/mL) and 0.44 µM (≈ 0.196 µg/mL), respectively.
With `O=[N+]([O-])c1cn2c(n1)OC[C@@H](OCC#Cc1ccc(-c3ccc(OC(F)F)cc3)cn1)C2`, the results for the minimal inhibitory concentration (MIC) in experiment [1] and in experiment [2] were 0.44 µM (≈ 0.195 µg/mL) and 0.025 µM (≈ 0.0111 µg/mL), respectively.
As for `O=[N+]([O-])c1cn2c(n1)OC[C@@H](OCC#Cc1ccc(-c3ccc(F)cc3)nc1)C2`, the MIC in experiment [1] amounted to 1 µM (≈ 0.394 µg/mL); in experiment [2], 0.05 µM (≈ 0.0197 µg/mL).
Consider `O=[N+]([O-])c1cn2c(n1)OC[C@@H](OCC#Cc1ccc(-c3ccc(C(F)(F)F)cc3)nc1)C2`, for which the minimum inhibitory concentration (MIC) worked out at 0.58 µM (≈ 0.258 µg/mL) in experiment [1] and 0.07 µM (≈ 0.0311 µg/mL) in experiment [2].
As to `O=[N+]([O-])c1cn2c(n1)OC[C@@H](OCC#Cc1ccc(-c3ccc(C(F)(F)F)nc3)nc1)C2`, the MIC in experiment [1] is 3.7 µM (≈ 1.65 µg/mL); in experiment [2], 0.12 µM (≈ 0.0534 µg/mL).
`O=[N+]([O-])c1cn2c(n1)OC[C@@H](OCC#Cc1ccc(-c3ccc(OC(F)F)cc3)nc1)C2`: the MIC stood at 0.61 µM (≈ 0.27 µg/mL) in experiment [1] and 0.08 µM (≈ 0.0354 µg/mL) in experiment [2].
For `O=[N+]([O-])c1cn2c(n1)OC[C@@H](OCCCC#Cc1ccc(-c3ccc(F)cc3)cc1)C2`, the MIC in experiment [1] came to 1.6 µM (≈ 0.674 µg/mL); in experiment [2], 0.07 µM (≈ 0.0295 µg/mL).
`O=[N+]([O-])c1cn2c(n1)OC[C@@H](OCCCC#Cc1ccc(-c3ccc(C(F)(F)F)cc3)cc1)C2`: the values for the minimal inhibitory concentration (MIC) in experiment [1] and in experiment [2] were over 128 µM and 0.085 µM (≈ 0.0401 µg/mL), respectively.
Turning to `O=[N+]([O-])c1cn2c(n1)OC[C@@H](OCCCC#Cc1ccc(-c3ccc(C(F)(F)F)nc3)cc1)C2`, the values for the MIC in experiment [1] and in experiment [2] were 63 µM (≈ 29.8 µg/mL) and 0.11 µM (≈ 0.052 µg/mL), respectively.
Turning to `O=[N+]([O-])c1cn2c(n1)OC[C@@H](OCCCC#Cc1ccc(-c3ccc(OC(F)F)cc3)cc1)C2`, the MIC in experiment [1] worked out at 39 µM (≈ 18.3 µg/mL); in experiment [2], 0.035 µM (≈ 0.0164 µg/mL).
Turning to `O=[N+]([O-])c1cn2c(n1)OC[C@@H](Oc1ccc(-c3ccc(F)cc3)cn1)C2`, the MIC worked out at 15 µM (≈ 5.34 µg/mL) in experiment [1] and 0.37 µM (≈ 0.132 µg/mL) in experiment [2].
Regarding `O=[N+]([O-])c1cn2c(n1)OC[C@@H](Oc1ccc(-c3ccc(C(F)(F)F)cc3)cn1)C2`, the figures for the minimal inhibitory concentration (MIC) in experiment [1] and in experiment [2] were 12 µM (≈ 4.88 µg/mL) and 0.1 µM (≈ 0.0406 µg/mL), respectively.
Consider `O=[N+]([O-])c1cn2c(n1)OC[C@@H](Oc1ncc(-c3ccc(C(F)(F)F)cc3)cn1)C2`, for which the MIC in experiment [1] came out at 3 µM (≈ 1.22 µg/mL); in experiment [2], 0.21 µM (≈ 0.0855 µg/mL).
Regarding `CC(O[C@@H]1COc2nc([N+](=O)[O-])cn2C1)c1ccc(-c2ccc(F)cc2)cc1` (stereo partly specified), the minimum inhibitory concentration (MIC) came out at 1.3 µM (≈ 0.498 µg/mL) in experiment [1] and 0.22 µM (≈ 0.0843 µg/mL) in experiment [2].
For `CC(O[C@@H]1COc2nc([N+](=O)[O-])cn2C1)c1ccc(-c2ccc(C(F)(F)F)cc2)cc1` (stereo partly specified), in that order: 2.2 µM (≈ 0.953 µg/mL) and 0.18 µM (≈ 0.078 µg/mL).
The like results for `CC(O[C@@H]1COc2nc([N+](=O)[O-])cn2C1)c1ccc(-c2ccc(C(F)(F)F)nc2)cc1` (stereo partly specified) were, in that order, 4.3 µM (≈ 1.87 µg/mL) and 0.39 µM (≈ 0.169 µg/mL).
The like results for `O=[N+]([O-])c1cn2c(n1)OC[C@@H](Oc1ccc(-c3ccc(C(F)(F)F)cc3)cc1)C2` were, in that order, over 128 µM and 0.39 µM (≈ 0.158 µg/mL).
In the case of `O=[N+]([O-])c1cn2c(n1)OC[C@@H](Oc1cccc(-c3ccc(OC(F)F)cc3)n1)C2`, the MIC in experiment [1] amounted to 4.4 µM (≈ 1.78 µg/mL); in experiment [2], 0.52 µM (≈ 0.21 µg/mL).
In the case of `O=[N+]([O-])c1cn2c(n1)OC[C@@H](Oc1cc(-c3ccc(F)cc3)ncn1)C2`, the results for the MIC in experiment [1] and in experiment [2] were 15 µM (≈ 5.36 µg/mL) and 0.99 µM (≈ 0.354 µg/mL), respectively.
For `O=[N+]([O-])c1cn2c(n1)OC[C@@H](Oc1cc(-c3ccc(C(F)(F)F)cc3)ncn1)C2`, in that order: 17 µM (≈ 6.92 µg/mL) and 0.8 µM (≈ 0.326 µg/mL).

The values above are taken from ChEMBL document CHEMBL1833943, “Synthesis and structure-activity relationships of varied ether linker analogues of the antitubercular drug (6S)-2-nitro-6-{[4-(trifluoromethoxy)benzyl]oxy}-6,7-dihydro-5h-imidazo[2,1-b][1,3]oxazine (PA-824)” (J Med Chem, 2011).
